What all share (experiment): Kinase profiling in vitro at 1 μM
Format in all cases: biochemical
Common to all, as to settings: 1 microMolar in vitro, read-out: Percent of remaining activity

The target of one test is IR (Homo sapiens, UniProt P06213). As for the experimental part:
(§1) The specificity of C14 was tested, in vitro, against 121 kinases representative of the kinome. Assays run in duplicate, at the concentration of 1 μM, were performed by MRC (Dundee, UK). Results are represented in FIG. 1. The main targets are highlighted in FIG. 1B. The profiling was performed at the MRC (Dundee University), in duplicate, on a set of 121 kinases. The panel is representative of the major different classes of kinases. Compounds were used at the concentration of 1 μM. In vitro, IC50 were determined on recombinant kinases by Reaction biology Corp (USA).

The target of the next test is FGFR1 (Homo sapiens, UniProt P11362). As for the experimental part:
as §1

The target in a further test is Tak1 (Homo sapiens, UniProt O43318). As for the experimental part: as §1
Tak1, sequence (O43318 1-303 limits assumed): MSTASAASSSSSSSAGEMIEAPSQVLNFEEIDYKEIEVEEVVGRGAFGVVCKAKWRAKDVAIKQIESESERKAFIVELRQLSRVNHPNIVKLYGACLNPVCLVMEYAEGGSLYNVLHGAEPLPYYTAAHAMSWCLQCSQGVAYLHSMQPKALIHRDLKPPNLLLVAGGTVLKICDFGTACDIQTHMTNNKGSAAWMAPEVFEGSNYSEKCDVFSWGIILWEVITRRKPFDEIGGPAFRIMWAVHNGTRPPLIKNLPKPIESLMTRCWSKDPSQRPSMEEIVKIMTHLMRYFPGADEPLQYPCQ
Tak1, sequence (Q15750 437-504 partner limits assumed): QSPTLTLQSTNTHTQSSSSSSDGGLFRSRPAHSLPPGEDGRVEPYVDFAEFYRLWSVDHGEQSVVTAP
Another test addresses MLK1 (Homo sapiens, UniProt P80192). As for the experimental part:
as §1

Another test has as its target TrkA (Homo sapiens, UniProt P04629). As for the experimental part:
as §1

IR, sequence (P06213 28-1382): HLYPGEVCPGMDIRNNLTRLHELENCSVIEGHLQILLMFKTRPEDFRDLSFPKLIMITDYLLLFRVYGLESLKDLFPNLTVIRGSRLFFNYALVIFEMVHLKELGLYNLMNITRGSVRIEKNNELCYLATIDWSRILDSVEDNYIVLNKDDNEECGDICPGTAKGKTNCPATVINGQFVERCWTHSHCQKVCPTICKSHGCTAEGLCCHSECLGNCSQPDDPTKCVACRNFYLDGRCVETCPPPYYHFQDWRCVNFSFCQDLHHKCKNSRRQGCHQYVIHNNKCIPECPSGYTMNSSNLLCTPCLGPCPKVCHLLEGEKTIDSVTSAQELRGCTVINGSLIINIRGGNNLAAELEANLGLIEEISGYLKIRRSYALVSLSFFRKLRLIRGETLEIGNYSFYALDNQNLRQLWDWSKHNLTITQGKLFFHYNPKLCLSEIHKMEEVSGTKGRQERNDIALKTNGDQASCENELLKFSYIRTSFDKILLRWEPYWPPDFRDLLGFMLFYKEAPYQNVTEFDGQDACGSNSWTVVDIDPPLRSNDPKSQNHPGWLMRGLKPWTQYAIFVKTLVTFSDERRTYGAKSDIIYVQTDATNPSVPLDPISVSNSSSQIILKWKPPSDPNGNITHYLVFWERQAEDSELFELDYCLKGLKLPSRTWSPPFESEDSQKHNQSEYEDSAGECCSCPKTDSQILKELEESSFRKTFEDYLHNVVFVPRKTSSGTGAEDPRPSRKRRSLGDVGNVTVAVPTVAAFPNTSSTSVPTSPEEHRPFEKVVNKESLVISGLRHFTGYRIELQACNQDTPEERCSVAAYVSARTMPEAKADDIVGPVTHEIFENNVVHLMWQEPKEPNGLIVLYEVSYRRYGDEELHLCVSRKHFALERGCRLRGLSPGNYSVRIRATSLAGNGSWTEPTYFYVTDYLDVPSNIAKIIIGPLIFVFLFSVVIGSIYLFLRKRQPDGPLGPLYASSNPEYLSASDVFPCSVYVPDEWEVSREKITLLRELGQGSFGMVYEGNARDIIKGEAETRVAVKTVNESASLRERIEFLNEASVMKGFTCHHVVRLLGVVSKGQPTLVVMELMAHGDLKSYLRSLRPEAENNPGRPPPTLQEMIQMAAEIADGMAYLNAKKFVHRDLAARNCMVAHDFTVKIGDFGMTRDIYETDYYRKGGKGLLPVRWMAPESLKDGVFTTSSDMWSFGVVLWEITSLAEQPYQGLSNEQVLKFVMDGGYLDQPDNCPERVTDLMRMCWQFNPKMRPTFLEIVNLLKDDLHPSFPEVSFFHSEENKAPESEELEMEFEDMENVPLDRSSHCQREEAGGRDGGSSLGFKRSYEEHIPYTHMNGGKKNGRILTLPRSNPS
MLK1, sequence (P80192 whole entry, species assumed): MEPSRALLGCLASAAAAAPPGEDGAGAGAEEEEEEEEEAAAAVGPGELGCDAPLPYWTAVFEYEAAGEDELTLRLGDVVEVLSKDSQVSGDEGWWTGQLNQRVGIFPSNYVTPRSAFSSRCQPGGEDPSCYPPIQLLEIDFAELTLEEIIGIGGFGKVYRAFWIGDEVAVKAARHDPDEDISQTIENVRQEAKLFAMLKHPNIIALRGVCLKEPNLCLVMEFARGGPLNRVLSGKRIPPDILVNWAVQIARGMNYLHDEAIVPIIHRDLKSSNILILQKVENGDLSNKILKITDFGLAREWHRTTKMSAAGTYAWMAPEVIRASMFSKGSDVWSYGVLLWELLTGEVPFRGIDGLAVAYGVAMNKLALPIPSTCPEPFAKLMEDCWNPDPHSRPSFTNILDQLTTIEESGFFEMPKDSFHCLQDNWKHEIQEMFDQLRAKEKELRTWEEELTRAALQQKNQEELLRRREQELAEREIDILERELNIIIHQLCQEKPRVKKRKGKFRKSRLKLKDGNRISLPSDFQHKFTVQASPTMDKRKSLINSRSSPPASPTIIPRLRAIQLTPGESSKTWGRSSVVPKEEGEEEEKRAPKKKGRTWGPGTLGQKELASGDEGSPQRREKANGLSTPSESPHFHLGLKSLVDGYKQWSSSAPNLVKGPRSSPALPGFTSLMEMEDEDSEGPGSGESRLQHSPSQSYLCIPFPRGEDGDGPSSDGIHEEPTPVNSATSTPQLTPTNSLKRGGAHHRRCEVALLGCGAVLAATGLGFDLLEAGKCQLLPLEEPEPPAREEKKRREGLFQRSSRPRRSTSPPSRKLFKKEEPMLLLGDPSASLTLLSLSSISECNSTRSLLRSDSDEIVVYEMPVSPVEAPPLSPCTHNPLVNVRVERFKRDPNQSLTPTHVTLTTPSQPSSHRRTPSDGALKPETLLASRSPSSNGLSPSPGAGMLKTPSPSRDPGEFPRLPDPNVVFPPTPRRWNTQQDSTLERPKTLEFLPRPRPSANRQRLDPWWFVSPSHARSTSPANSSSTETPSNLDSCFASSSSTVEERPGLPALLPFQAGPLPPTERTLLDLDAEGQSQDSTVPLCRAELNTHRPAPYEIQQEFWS
TrkA, sequence (P04629 33-796, species assumed): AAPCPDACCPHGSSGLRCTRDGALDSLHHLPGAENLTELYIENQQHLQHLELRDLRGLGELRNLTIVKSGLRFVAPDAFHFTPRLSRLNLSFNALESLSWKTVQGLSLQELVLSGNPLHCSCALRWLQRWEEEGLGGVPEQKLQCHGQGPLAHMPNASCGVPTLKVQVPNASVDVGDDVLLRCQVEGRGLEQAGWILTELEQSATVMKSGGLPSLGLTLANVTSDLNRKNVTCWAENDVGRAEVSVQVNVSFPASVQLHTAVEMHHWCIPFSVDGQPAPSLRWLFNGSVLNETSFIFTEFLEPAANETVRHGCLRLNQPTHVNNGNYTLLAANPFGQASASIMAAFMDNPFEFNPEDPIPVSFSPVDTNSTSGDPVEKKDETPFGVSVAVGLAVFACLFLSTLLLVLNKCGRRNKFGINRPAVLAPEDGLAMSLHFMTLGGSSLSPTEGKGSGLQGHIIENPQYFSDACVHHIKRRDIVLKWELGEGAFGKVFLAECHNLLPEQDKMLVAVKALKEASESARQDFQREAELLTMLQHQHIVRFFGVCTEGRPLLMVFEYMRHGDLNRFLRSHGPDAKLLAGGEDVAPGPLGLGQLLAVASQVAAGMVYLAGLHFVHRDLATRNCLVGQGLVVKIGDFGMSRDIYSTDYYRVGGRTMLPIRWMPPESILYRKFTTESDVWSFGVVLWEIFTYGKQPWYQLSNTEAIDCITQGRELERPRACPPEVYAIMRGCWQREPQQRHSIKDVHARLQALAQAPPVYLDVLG
FGFR1, sequence (P11362 22-822, species assumed): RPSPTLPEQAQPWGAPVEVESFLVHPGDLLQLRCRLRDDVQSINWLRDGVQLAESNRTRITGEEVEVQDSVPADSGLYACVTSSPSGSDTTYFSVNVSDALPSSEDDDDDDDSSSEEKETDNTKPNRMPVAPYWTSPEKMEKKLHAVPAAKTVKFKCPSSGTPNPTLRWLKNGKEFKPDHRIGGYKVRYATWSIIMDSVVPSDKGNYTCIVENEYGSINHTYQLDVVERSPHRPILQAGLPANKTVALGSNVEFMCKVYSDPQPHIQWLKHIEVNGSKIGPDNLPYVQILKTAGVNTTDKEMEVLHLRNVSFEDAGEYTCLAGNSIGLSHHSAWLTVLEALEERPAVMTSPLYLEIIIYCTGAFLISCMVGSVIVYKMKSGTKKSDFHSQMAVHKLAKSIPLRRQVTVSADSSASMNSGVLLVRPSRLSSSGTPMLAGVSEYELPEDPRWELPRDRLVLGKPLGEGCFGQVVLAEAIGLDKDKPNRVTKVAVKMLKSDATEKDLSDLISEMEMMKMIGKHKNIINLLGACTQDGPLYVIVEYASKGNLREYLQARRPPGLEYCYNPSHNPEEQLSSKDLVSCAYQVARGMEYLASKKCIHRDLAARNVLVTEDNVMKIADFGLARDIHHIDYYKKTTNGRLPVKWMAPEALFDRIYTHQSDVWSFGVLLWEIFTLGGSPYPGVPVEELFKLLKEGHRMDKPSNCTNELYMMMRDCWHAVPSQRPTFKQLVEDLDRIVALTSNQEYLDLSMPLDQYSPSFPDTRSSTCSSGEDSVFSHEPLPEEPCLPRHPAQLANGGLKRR

The remaining activity is what remains of the control signal, in per cent. For `Cc1c[nH]c(=O)c2c1[nH]c1ccc3cc(OCCN(C)C)ccc3c12` [Compound C14, 3-(2-N,N-Dimethylaminoethoxy)-8-methyl-7H,10H-benzo[e]pyrido(4,3-b)indol-11-one], the remaining activity at 1 µM at IR was 15%; on FGFR1, 24%; at Tak1, 6%; at MLK1, 27%; at TrkA, 5%.
